# Reference: US8084465B2, “Derivatives of pryidone and use thereof” (Shanghai Genomics, Inc., priority 2003, dated 2011)
# How the values were obtained:
# [1] = test system: rat with liver fibrosis induced by CCl4; test: Serum transaminase (ALT) level in the CCl4 liver fibrosis model; assay type: in vivo; details: CCl4 model + F351, week 4; CCl4 model group 52±17.15, control group 27±5.09; P<0.05
# Description: (§1) (a) Generating a carbon tetrachloride model (injected intraperitoneally with 40% CCl4 mixed with oil, 0.4 ml/100 g, twice per week, for 4 continuous weeks) and a dimethyl nitrosamine liver fibrosis model (injected intraperitoneally with 1% DMN, 10 mg/Kg, twice per week, for 8 continuous weeks).
# (§2) (b) The animals of these two models were intragastrically administered with F351 from the 0 day of the model establishment, with the dose at 250 mg/Kg, once per day, for 4 or 8 continuous weeks.
# (§3) The rat liver fibrosis models established by induction with CCl4 and DMN were treated with F351 in the same manner in Example 3. The serum of the rats was extracted and the level of the serum transaminase was measured.
# [2] = test system: liver fibrosis model induced by DMN; test: Mortality of rats in the DMN liver fibrosis model; assay type: in vivo, rat
# Description: as §1, §2
# (§4) The rat liver fibrosis models established by induction with CCl4 and DMN were treated with F351 in the same manner in Example 3. The body weight and mortality of the rates were observed.
# [3] = test system: rat liver fibrosis model induced by DMN (dimethyl nitrosamine); test: Rat liver fibrosis model induced by DMN, liver pathology; assay type: in vivo
# Description: (§5) A rat liver fibrosis model was established by induction with CCl4 and DMN (dimethyl nitrosamine)) respectively, and treated with F351 for 4 weeks, 8 weeks. The livers of the animal were harvested to observe the pathologic results. The method was as follows:
# as §1, §2
# [4] = test system: rat with liver fibrosis induced by DMN; test: Serum transaminase (ALT) level in the DMN liver fibrosis model; assay type: in vivo; details: DMN model + F351, week 4; DMN model group 74±18.25, control group 27±5.09; P<0.05
# Description: as §1, §2, §3
# [5] = test system: rat liver fibrosis model induced by CCl4; test: Rat liver fibrosis model induced by CCl4, liver pathology; assay type: in vivo; details: 4 weeks, 250 mg/Kg intragastrically once per day, model group S4-S6, P=0.001
# Description: as §5, §1, §2
# fibroblast = test: MTT assay, proliferation of fibroblast cultured in vitro; assay type: cell-based
# Description: The inhibitory effect of F351 on the proliferation of fibroblast cultured in vitro was tested using the following method. F351 was dissolved in 0.5% DMSO. The fibroblast was treated with F351 of different amount (FIG. 1 and FIG. 2) for 5 days. The agent was refreshed once every 48 hrs. Pirfenidone was used in parallel experiments in order to compare the effects of these two agents.
# MTT assay: […] cell suspension was added into each well of a 96-well plate, 4 parallel wells per group. The concentration of the agent and the culture time remained unchanged. Then 10 μL 5 g/L MTT (3-(4,5-dimethylthiazol-2-yl)-2,5-diphenyltetrazolium bromide) was added to each well for another 4 hrs of culture. 100 uL DMSO was added to each well. Gently vortex to make a uniform mixture. After about 10 mins, OD values at 570 nm and 630 nm were measured by an enzyme linked immune detector (BIO RAD 550). The cell viability rate was calculated in accordance with the following formula: Viability rate=[(experimental well OD570−experimental well OD630)/(control well OD570−control well OD630)]×100% Inhibition rate (or proliferation rate)=100%−viability rate
# [6] = test system: liver fibrosis model induced by CCl4; test: Mortality of rats in the CCl4 liver fibrosis model; assay type: in vivo; details: 250 mg/Kg once per day
# Description: as §1, §2, §4
smiles,measurement,setting,value
"Cc1ccc(=O)n(-c2ccc(O)cc2)c1 [F351, 5-methyl-1-(4-hydroxylphenyl)-2-(1H)-pyridone]",ALT serum level,[1],45±17.68
same,rats survived,"[2]; week 4, 250 mg/Kg once per day, control group 7 of 25 rats survived",24
same,rats survived,"[2]; week 8, 250 mg/Kg once per day, control group 2 of 25 rats survived",18
same,"liver lesion (hepatocyte necrosis, hemorrhage, collagen deposition, fibrosis)","[3]; week 4, 250 mg/Kg intragastrically once per day, versus model group, P<0.001",significantly reduced
same,fibrosis around the sinus (pathologic results),"[3]; week 8, 250 mg/Kg intragastrically once per day, versus control group",obviously better than the control group
same,ALT serum level,[4],54±17.25
same,pathologic changes (fibrosis dimension around the central veins and the sinus),[5],obviously reduced
same,activity for inhibiting the fibroblast viability,"fibroblast; FIG. 2, versus Pirfenidone control",higher than that of the Pirfenidone control
same,inhibitory effect on the fibroblast,"fibroblast; MTT assay, treated for 5 days, compared with Pirfenidone in parallel, FIG. 1 and FIG. 2",more significant than that of Pirfenidone
same,mortality of the rats,[6],did not increase the mortality
